# Source: publication PMC7613620, “Reaction hijacking of tyrosine tRNA synthetase as a whole-of-life-cycle antimalarial strategy” (Science (New York, N.Y.), 2022)
# Like-named read-outs stand apart in the source and are kept apart here.
# What was measured:
# Assay type in all cases: cell-based, Plasmodium falciparum
# [1] = test system: protein translation in P. falciparum (Cam3.II-rev) schizonts; assay: Protein translation assay (O-propargyl-puromycin incorporation); conditions: read-out: IC50 (Translation)
# Method: (§1) 723 then fixed for 10 minutes (4% formaldehyde/0.02% glutaraldehyde in PBS). The click reaction was
# (§2) 724 performed for 1 h in the presence of CuSO4 (0.1 mM), THPTA (0.5 mM) and sodium ascorbate (5 mM) to
# (§3) 725 bring about azide-alkyne cycloaddition to Alexa Fluor 488 azide (0.1 µM). Flow cytometry was performed
# (§4) 726 using the FITC and Cy™5.5 channels to detect the Alexa Fluor 488 and PI, respectively.
# (§5) 729 Cam 3.II_Rev (25) trophozoite-infected RBCs (25-30 h p.i.) were incubated with inhibitor for 3 h at 10%
# (§6) 730 hematocrit and 5% parasitemia. The RBC pellet was washed 3 x in PBS + cOmplete. Cells were centrifuged
# (§7) 731 at 380 x g for 5 min and the pelleted cells lysed by resuspension in PBS + 0.05% saponin for 5 min on ice.
# [2] = test system: P. falciparum (Cam3.II-rev) schizont stage; assay: 3 h drug pulse viability assay; conditions: read-out: IC50 (Viability)
# Method: 553 Sigma-Aldrich) for 48-72 h. For drug pulse assays, tightly synchronized parasites (1-1.5% parasitemia,
# 554 0.2% final hematocrit) were added to the plates and incubated for 3 h. Drugs were removed and the
# 555 parasitemia assessed in the trophozoite stage of the next cycle.
# 557 Compounds were tested against a range of drug resistant field isolates and laboratory strains using a
# 558 modified [3H]-hypoxanthine incorporation assay, as previously reported (46). Field isolates 7G8, Cam3.1,
# 559 Dd2, K1, TM90C2B and NF54 were obtained from MR4 (www.beiresources.org).
# 561 Mammalian cell culture experiments
# 562 The HepG2 (Human hepatocyte carcinoma) cell line was procured from ATCC (American Type
# 563 Culture Collection, Manassas, USA; HB-8065) and viability assessed using Cell Titer-GLO luminescent
# 564 cell viability assay reagents (Promega, catalogue number: G7570) (47, 48). For the assay, 2000 cells/well
# 565 were plated in 384-well plates 24 h prior to the experiment and incubated at 37°C in a CO2 incubator. The
# 566 medium was removed and cells were treated with fresh medium containing either vehicle (0.5% DMSO)
# 567 or serially diluted test compounds or doxorubicin (1.3 nM to 25 µM) in a final volume of 50 µl/well and
# 568 further incubated for 72 h at 37°C in a CO2 incubator.
# 569 were treated with 5 µl of 1% Triton X-100 (final assay conc. 0.1%). Following incubation, 25 µl of medium
# 570 was discarded and 25 µl of Cell Titer-GLO reagent was added to each well and the plate was kept on a plate
# 571 shaker for 15 min at 25°C with shaking at 300 rpm. Luminescence signals were measured in a Spectramax
# 572 M5 reader (Molecular Devices).
# 574 H1650 is a human lung cancer derived ATG7-null cell line (49) that can be used to assess effects on targets
# 576 adenocarcinoma; bronchoalveolar carcinoma). Other cells lines used are: H460 (NCI-H460; human lung;
# 577 carcinoma; large cell lung cancer; ATCC: HTB-177); and HCT116 (human colon; colorectal carcinoma;
# 578 ATCC: CCL-247; Lot : 5056139). […]
# 580 inhibitors and cell viability was assessed by comparing the ATP content in compound-treated wells with […]
# PfYRS knockdown line = assay: Growth inhibition of aptamer-regulatable PfYRS knockdown line (luciferase, 72 h); conditions: for IC50: Plasmodium falciparum, read-out: IC50 against the PfYRS knockdown line (control compounds)
# Excerpt: 674 Generation and analysis of PfYRS knock-down transfectants
# 675 A conditional regulatable line for the cytosolic PfYRS (PF3D7_0807900) was generated by integrating the
# 676 gene regulatable system, TetR-DOZI-RNA aptamer module at the 3'-end of the target gene, in P. falciparum
# 677 parasites using CRISPR-Cas9 and homology-driven repair (55, 56). A line harbourbing an aptamer-
# 678 regulatable fluorescent protein (eYFP) integrated in the cg6 locus is used as the control (55). Transfection
# 679 into parasites was carried out by preloading RBCs with the donor vector as described previously (57).
# 680 Briefly, 50 μg of purified plasmid DNA was mixed with human RBCs and subjected to 8 square wave
# 681 electroporation pulses of 365 V for 1 ms each, separated by 0.1 s in a 0.2 cm cuvette. The plasmid DNA
# 682 preloaded cells were inoculated with NF54 expressing Cas9 and T7 RNA polymerase. […]
# 696 Stock solutions of ML901, DHA or borrelidin (Cayman Chemicals) were dispensed into 96-well U-bottom
# 697 BD Falcon™ plates and serially diluted in complete medium to yield final concentrations ranging from 20-
# 698 0.08 nM. Synchronous ring-stage YRScyt conditional knockdown line and the aptamer-regulatable control
# 699 line in varying aTc concentrations (high = 50 or 500 nM, low = 1 nM, and no aTc) were distributed into
# 700 the drug plate. Lowest drug treatment and a lethal dose of chloroquine (200 nM) served as reference
# 701 controls. Growth inhibition was analysed after 72 h using the Renilla-Glo(R) Luciferase Assay System (ref
# 702 no E2750 Promega) and the GloMax® Discover Multimode Microplate Reader (Promega), and IC50 values
# 703 were obtained from corrected dose-response curves using GraphPad Prism (version 8; GraphPad Software). […]
# 706 CRISPR/Cas9 was used to generate parasites encoding the S234C mutation in exon 2 of PfYRS, as shown
# 707 in Suppl Figure 6. Two guide RNAs (gRNA1: […] and gRNA2:
# 708 […]) were selected using Benchling (benchling.com), and cloned into the
# 709 pDC2-coCas9-gRNA plasmid essentially as described previously (58). A donor template of 645 bp,
# 710 encompassing the majority of the 708 bp exon 2, was synthesized (ThermoFisher) and cloned into the
# 711 AatII/EcoRI sites of both the pDC2-coCas9-gRNA1 and pDC2-coCas9-gRNA2 plasmids. In addition to
# 712 the TCC>TGC (S234C) mutation, additional silent shield mutations were introduced to prevent gRNA-
# 713 Cas9 complex binding, as shown in Suppl Figure 6. Ring-stage P. falciparum parasites (Dd2 strain) at 10%
# 714 parasitemia (150 µL of packed cells) were transfected with 50 µg of plasmid DNA using a BioRad Gene
# 715 Pulser II (310 V, 950 µF), and selected with 5 nM WR99210 (Jacobus Pharmaceuticals) for 8 days, after
# 716 which culture was continued without drug pressure until transfectants were obtained. Clones of the
# 717 PfYRSS234C mutant parasites were isolated by limiting dilution and verified by Sanger sequencing.
# 719 Protein translation assay
# 720 P. falciparum Cam 3.II_Rev (25) schizont- (43-48 h p.i.) infected RBCs were pre-incubated with inhibitor
# Using a modification of a published procedure (14), the
# 722 cells were labelled with O-propargyl-puromycin (OPP; 4 µM) for 1 h, washed 3x (PBS +3% serum) and
# as §1, §2, §3, §4, §5, §6, §7
structure (smiles),measurement,setting,value
CC1(C)N=C(N)N=C(N)N1OCCCOc1cc(Cl)c(Cl)cc1Cl [WR99210],IC50,"[1]; schizont stage Cam3.II-rev, 1 h pre-incubation then OPP incorporation over next 2 h",> 1000 nM
same,IC50,"[2]; schizont stage Cam3.II-rev, 3 h exposure, viability at trophozoite stage of next cycle",1.9 nM
C[C@@H]1C[C@H](C)C[C@H](C)[C@@H](O)CC(=O)O[C@H]([C@@H]2CCC[C@H]2C(=O)O)C/C=C/C=C(/C#N)[C@H](O)[C@@H](C)C1 [borrelidin],IC50,PfYRS knockdown line; high aTc (500 nM),0.07 nM
same,IC50,PfYRS knockdown line; low aTc (1 nM),0.07 ± 0.01 nM
same,IC50,PfYRS knockdown line; no aTc,0.07 ± 0.01 nM
same,"Fold change in IC50 (high aTc/ no aTc), PfYRS knockdown line (control compounds)",PfYRS knockdown line; high aTc 500 nM,no change
C[C@@H]1C[C@@H]([C@H](O)CC2CC(=O)NC(=O)C2)C(=O)[C@@H](C)C1 [cycloheximide],IC50,[1]; Plasmodium falciparum,2000 nM
same,IC50,"[2]; Plasmodium falciparum, 3 h",3200 nM
